Values of other authors, collected in patent US20040006100A1, “Monotherapy for the treatment of parkinson's disease with cyclooxygenase-2 (COX 2) inhibitor(S)” (priority 2002, published 2004).

**Q.** With N[C@@H](Cc1ccc(O)c(O)c1)C(=O)O [levodopa] as the compound, how does the “fraction of levodopa that reaches the brain” value (levodopa alone administered orally) read?
**A.** about 1%

**Q.** What about the “fraction of orally administered levodopa metabolized by decarboxylase and then unable to cross the BBB” value (oral administration, without carbidopa) of the same compound?
**A.** Up to 99%
